Earlier results on one substance are cited in US20140017187A1, “Use of 5-(7-methoxy-3,3-dimethyl-2,3-dihydro-1-benzoxepin-5-yl)-3-methyl-penta-2,4-dienoic acid as a cosmetic” (Merck Patent GmbH, priority 2008, published 2014).

For the data set, the target named is T1, PPAR-alpha (Homo sapiens, UniProt Q07869).
T1 sequence (Q07869 1-468): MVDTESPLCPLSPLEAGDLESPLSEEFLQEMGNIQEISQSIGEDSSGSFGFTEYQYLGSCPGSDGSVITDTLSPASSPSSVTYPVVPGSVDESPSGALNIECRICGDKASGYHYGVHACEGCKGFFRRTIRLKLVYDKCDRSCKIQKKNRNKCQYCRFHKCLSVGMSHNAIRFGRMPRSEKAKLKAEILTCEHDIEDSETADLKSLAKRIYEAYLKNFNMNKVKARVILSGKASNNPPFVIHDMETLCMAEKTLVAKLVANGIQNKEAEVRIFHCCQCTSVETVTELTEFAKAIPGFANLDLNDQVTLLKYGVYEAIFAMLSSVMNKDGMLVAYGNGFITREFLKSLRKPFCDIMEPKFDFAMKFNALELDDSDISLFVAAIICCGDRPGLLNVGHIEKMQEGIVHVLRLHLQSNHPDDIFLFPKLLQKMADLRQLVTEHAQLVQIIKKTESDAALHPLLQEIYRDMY
To be noted: personal communication Johann Wiechers; cited from earlier work.

Turning to Octadecenedioic acid [O.D.A. White], the PPAR-alpha activation entry is reported as “negligible”.
